The experiment concerns the target human LPAR1 (Homo sapiens, UniProt Q92633). Nature of the experiment: LPAR1 intracellular calcium mobilization assay (antagonist mode).

The results in this text go back to patent US11548871B2, “Triazole carbamate pyridyl sulfonamides as LPA receptor antagonists and uses thereof” (Gilead Sciences, Inc., priority 2019, dated 2023).

human LPAR1, sequence (Q92633 whole entry): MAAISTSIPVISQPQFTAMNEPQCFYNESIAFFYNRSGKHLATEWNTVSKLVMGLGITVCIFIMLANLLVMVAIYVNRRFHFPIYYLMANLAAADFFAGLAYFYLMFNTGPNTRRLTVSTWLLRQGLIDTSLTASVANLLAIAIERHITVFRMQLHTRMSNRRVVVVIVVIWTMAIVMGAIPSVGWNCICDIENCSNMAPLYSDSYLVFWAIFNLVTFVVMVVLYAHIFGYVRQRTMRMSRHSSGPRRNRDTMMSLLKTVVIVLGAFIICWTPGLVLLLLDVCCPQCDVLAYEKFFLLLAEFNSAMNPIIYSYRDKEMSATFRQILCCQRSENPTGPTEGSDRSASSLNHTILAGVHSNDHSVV

For the compound `Cc1nc(-c2nnn(C)c2NC(=O)O[C@H](CF)c2ccccc2)c(F)cc1NS(C)(=O)=O` [Compound 156, (S)-2-fluoro-1-phenylethyl (4-(3-fluoro-6-methyl-5-(methylsulfonamido)pyridin-2-yl)-1-methyl-1H-1,2,3-triazol-5-yl)carbamate], the EC50 (as a rule, the concentration needed to bring the measured effect to its halfway point) was found to be 162 nM.
Then `Cn1nnc(-c2ccc(NS(C)(=O)=O)cn2)c1NC(=O)O[C@@H](c1ccccc1)C(F)F` [Compound 15, (S)-2,2-difluoro-1-phenylethyl (1-methyl-4-(5-(methylsulfonamido)pyridin-2-yl)-1H-1,2,3-triazol-5-yl)carbamate], with 8.2 nM; and `Cc1cccc(COC(=O)Nc2c(-c3ccc(NS(C)(=O)=O)c(C)n3)nnn2C)c1` [Compound 37, 3-methylbenzyl (1-methyl-4-(6-methyl-5-(methylsulfonamido)pyridin-2-yl)-1H-1,2,3-triazol-5-yl)carbamate], with 172 nM; and `Cn1nnc(-c2ccc(NS(C)(=O)=O)cn2)c1NC(=O)OCc1cccc(Cl)c1` [Compound 20, 3-chlorobenzyl (1-methyl-4-(5-(methylsulfonamido)pyridin-2-yl)-1H-1,2,3-triazol-5-yl)carbamate], with 117 nM.
With `C[C@@H](OC(=O)Nc1c(-c2ccc(NS(C)(=O)=O)cn2)nnn1C)c1cc(F)ncc1F` [Compound 117, (R)-1-(2,5-difluoropyridin-4-yl)ethyl (1-methyl-4-(5-(methylsulfonamido)pyridin-2-yl)-1H-1,2,3-triazol-5-yl)carbamate], the EC50 is 218 nM.
Then `C[C@@H](OC(=O)Nc1c(-c2ccc(NS(C)(=O)=O)cn2)nnn1C)c1cnsc1Cl` [Compound 118, (R)-1-(5-chloroisothiazol-4-yl)ethyl (1-methyl-4-(5-(methylsulfonamido)pyridin-2-yl)-1H-1,2,3-triazol-5-yl)carbamate], with 57.8 nM; and `CCCCCC[C@H](OC(=O)Nc1c(-c2ccc(NS(C)(=O)=O)c(C)n2)nnn1C)C(F)(F)F` [Compound 51, (S)-1,1,1-trifluorooctan-2-yl (1-methyl-4-(6-methyl-5-(methylsulfonamido)pyridin-2-yl)-1H-1,2,3-triazol-5-yl)carbamate], with 1250 nM.
With `Cc1nc(-c2nnn(CC#N)c2NC(=O)O[C@H](C)c2ccccc2Cl)ccc1NS(C)(=O)=O` [Compound 96, (R)-1-(2-chlorophenyl)ethyl(1-(cyanomethyl)-4-(6-methyl-5-(methylsulfonamido)pyridin-2-yl)-1H-1,2,3-triazol-5-yl)carbamate], the EC50 came to 18.1 nM.
In the case of `Cc1nc(-c2nnn(C)c2NC(=O)OC(C)c2cccnc2F)ccc1NS(C)(=O)=O` (centres unmarked) [Compound 79, 1-(2-fluoropyridin-3-yl)ethyl (1-methyl-4-(6-methyl-5-(methylsulfonamido)pyridin-2-yl)-1H-1,2,3-triazol-5-yl)carbamate] it was 589 nM; in that of `CNS(=O)(=O)Nc1ccc(-c2nnn(C)c2NC(=O)O[C@H](C)c2cccnc2Cl)nc1C` [Compound 163, (R)-1-(2-chloropyridin-3-yl)ethyl (1-methyl-4-(6-methyl-5-((N-methylsulfamoyl)amino)pyridin-2-yl)-1H-1,2,3-triazol-5-yl)carbamate], 208 nM.
Regarding `Cc1nc(-c2nnn(C)c2NC(=O)OCCC(C)C)ccc1NS(C)(=O)=O` [Compound 33, isopentyl (1-methyl-4-(6-methyl-5-(methylsulfonamido)pyridin-2-yl)-1H-1,2,3-triazol-5-yl)carbamate], the EC50 is 3680 nM.
As for `Cc1nc(-c2nnn(C)c2NC(=O)O[C@H](C)c2cc(F)ncc2Cl)ccc1NS(C)(=O)=O` [Compound 123, (R)-1-(5-chloro-2-fluoropyridin-4-yl)ethyl (1-methyl-4-(6-methyl-5-(methylsulfonamido)pyridin-2-yl)-1H-1,2,3-triazol-5-yl)carbamate], the EC50 came to 86.1 nM.
Then `Cc1ncc(F)cc1[C@@H](C)OC(=O)Nc1c(-c2ccc(NS(C)(=O)=O)cn2)nnn1C` [Compound 112, (R)-1-(5-fluoro-2-methylpyridin-3-yl)ethyl (1-methyl-4-(5-(methylsulfonamido)pyridin-2-yl)-1H-1,2,3-triazol-5-yl)carbamate], with 106 nM; and `Cc1nc(-c2nnn(C)c2NC(=O)O[C@H](C)c2cc(F)ccc2F)ccc1NS(C)(=O)=O` [Compound 63, (R)-1-(2,5-difluorophenyl)ethyl (1-methyl-4-(6-methyl-5-(methylsulfonamido)pyridin-2-yl)-1H-1,2,3-triazol-5-yl)carbamate], with 23.4 nM; and `Cc1ccccc1[C@@H](C)OC(=O)Nc1c(-c2ccc(NS(C)(=O)=O)c(C)n2)nnn1C` [Compound 42, (R)-1-(o-tolyl)ethyl (1-methyl-4-(6-methyl-5-(methylsulfonamido)pyridin-2-yl)-1H-1,2,3-triazol-5-yl)carbamate], with 46.1 nM.
Turning to `Cc1nc(-c2nnn(C)c2NC(=O)O[C@H](C)c2cscc2Cl)ccc1NS(C)(=O)=O` [Compound 138, (R)-1-(4-chlorothiophen-3-yl)ethyl (1-methyl-4-(6-methyl-5-(methylsulfonamido)pyridin-2-yl)-1H-1,2,3-triazol-5-yl)carbamate], the EC50 is 23 nM.
Then `Cc1nc(-c2nnn(C)c2NC(=O)OC(C)c2cc(F)cnc2Br)ccc1NS(C)(=O)=O` (centres unmarked) [Compound 126, 1-(2-bromo-5-fluoropyridin-3-yl)ethyl (1-methyl-4-(6-methyl-5-(methylsulfonamido)pyridin-2-yl)-1H-1,2,3-triazol-5-yl)carbamate], with 232 nM; and `Cc1nc(-c2nnn(C)c2NC(=O)N[C@@H](c2ccccc2)C(F)(F)F)ccc1NS(C)(=O)=O` [Compound 66, (S)-N-(2-methyl-6-(1-methyl-5-(3-(2,2,2-trifluoro-1-phenylethyl)ureido)-1H-1,2,3-triazol-4-yl)pyridin-3-yl)methanesulfonamide], with 540 nM; and `COc1nc(-c2nnn(C)c2NC(=O)O[C@H](C)c2cccnc2Cl)ccc1NS(C)(=O)=O` [Compound 146, (R)-1-(2-chloropyridin-3-yl)ethyl (4-(6-methoxy-5-(methylsulfonamido)pyridin-2-yl)-1-methyl-1H-1,2,3-triazol-5-yl)carbamate], with 580 nM.
In the case of `Cn1nnc(-c2ccc(NS(C)(=O)=O)cn2)c1NC(=O)OCc1cccc(F)c1` [Compound 21, 3-fluorobenzyl (1-methyl-4-(5-(methylsulfonamido)pyridin-2-yl)-1H-1,2,3-triazol-5-yl)carbamate] it was 37.8 nM.
In the case of `Cc1cccc(COC(=O)Nc2c(-c3ccc(NS(C)(=O)=O)cn3)nnn2C)c1` [Compound 19, 3-methylbenzyl (1-methyl-4-(5-(methylsulfonamido)pyridin-2-yl)-1H-1,2,3-triazol-5-yl)carbamate] it was 284 nM; in that of `Cc1nc(-c2nnn(C)c2NC(=O)OC(C)c2cc(Cl)nnc2Cl)ccc1NS(C)(=O)=O` (centres unmarked) [Compound 134, 1-(3,6-dichloropyridazin-4-yl)ethyl (1-methyl-4-(6-methyl-5-(methylsulfonamido)pyridin-2-yl)-1H-1,2,3-triazol-5-yl)carbamate], 1830 nM.
As for `Cc1nc(-c2nnn(C)c2NC(=O)O[C@H](C)c2cccnc2)ccc1NS(C)(=O)=O` [Compound 67, (R)-1-(pyridin-3-yl)ethyl (1-methyl-4-(6-methyl-5-(methylsulfonamido)pyridin-2-yl)-1H-1,2,3-triazol-5-yl)carbamate], the concentration for a half-maximal effect (EC50) is 1630 nM.
